Results on three compounds are retold here after article PMC7301697 (Journal of Enzyme Inhibition and Medicinal Chemistry, 2020).

For assay [1], the target named is T1, Polyphosphate kinase 1 (PPK1) (Escherichia coli, UniProt P0A7B1).
T1 sequence (P0A7B1 2-688): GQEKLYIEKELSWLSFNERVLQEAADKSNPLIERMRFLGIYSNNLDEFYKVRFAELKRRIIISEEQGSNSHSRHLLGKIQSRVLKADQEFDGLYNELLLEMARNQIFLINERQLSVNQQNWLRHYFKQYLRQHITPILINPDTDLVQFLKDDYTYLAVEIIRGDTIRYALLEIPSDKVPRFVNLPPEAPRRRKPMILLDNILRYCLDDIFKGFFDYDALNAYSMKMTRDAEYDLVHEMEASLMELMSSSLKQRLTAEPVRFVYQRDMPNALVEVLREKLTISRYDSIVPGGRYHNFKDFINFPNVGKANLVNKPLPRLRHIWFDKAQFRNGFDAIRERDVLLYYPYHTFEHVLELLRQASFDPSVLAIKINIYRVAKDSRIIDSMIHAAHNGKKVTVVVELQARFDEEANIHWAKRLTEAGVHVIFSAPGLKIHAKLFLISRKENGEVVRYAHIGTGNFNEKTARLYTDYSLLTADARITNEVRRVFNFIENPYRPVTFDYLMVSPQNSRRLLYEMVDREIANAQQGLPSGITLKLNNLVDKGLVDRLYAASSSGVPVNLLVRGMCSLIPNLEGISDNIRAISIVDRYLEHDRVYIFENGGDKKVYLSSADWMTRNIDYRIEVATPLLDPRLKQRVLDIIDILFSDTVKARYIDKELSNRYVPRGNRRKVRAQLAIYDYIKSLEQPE
Briefly: SPR. The format is binding.

The target in assay [2] is T1, Polyphosphate kinase 1 (PPK1). Briefly: SPR single-concentration response at […]. The class given is binding.

Usually Kd stands for a measure of binding affinity in units of concentration. A higher Kd goes with a looser complex.

The structures appear in SMILES notation.

In the case of `O=[N+]([O-])c1ccc2nc(-c3ccc(Cl)cc3)[nH]c2c1` [compound 8, 8], in assay [1], the Kd stood at 85.8 µM.

`Cc1ccc(C(=O)Nc2ccc(Cl)cc2)cc1C(F)(F)F` [compound 17, 17] yielded a Kd in assay [1] of 84.6 µM.

Take `COc1cc([C@@H]2c3cc4c(cc3[C@@H](O[C@@H]3O[C@@H]5CO[C@@H](C)O[C@H]5[C@H](O)[C@H]3O)[C@H]3COC(=O)[C@H]23)OCO4)cc(OC)c1O` [Etoposide]: in assay [2], the “SPR single-concentration response at 100 μM (positive control)” value is given as 3.06 100RU/Da.
